From paper PMC9298916, “The Discovery and Structure‐Activity Evaluation of (+)‐Floyocidin B and Synthetic Analogs” (Chemmedchem, 2021)
In brackets after ≈: the same amount, converted by molar mass. Like-named read-outs stand apart in the source and are kept apart here.

Tests used:
[1] = Microsomal stability, human; format: in vitro ADME; settings: 1 µM compound; for Microsomal stability CLint, Human / Microsomal stability t1/2, Human: human liver microsomes 0.5 mg/mL; for microsomal CLint at 1 µM / half-life at 1 µM: human, pooled liver microsomes, pH 7.4, human liver microsomes 0.5 mg/mL; for half-life at 1 µM: read-out: Microsomal stability t1/2, Human
Procedure: (§1) 2.4. Assay descriptions for the profiling of all four stereoisomers of (+)-floyocidin B and (−)-avicennone C,1 the avicennone C-floyocidin B hybrids 35, ent-35, 36 and ent-36 as well as the natural product (+)-floyocidin A. […]
(§2) Pooled liver microsomes are purchased. Microsomes are stored at –80 °C prior to use. Microsomes (final protein concentration 0.5 mg/mL), 0.1 M phosphate buffer pH 7.4, and test compound (final substrate concentration 1 µM; final DMSO concentration 0.25%) are preincubated at 37 °C prior to the addition of NADPH (final concentration 1 mM) to initiate the reaction. A minus cofactor control i ncubation is included for each compound tested where 0.1 M phosphate buffer pH 7.4 is added instead of NADPH. Two control compounds are included. All incubations are performed singularly for each test compound. Each compound is incubate d for 0, 5, 15, 30, and 45 min. The control is incubated for 45 min only. The reactions are stopped by transferring incubate into acetonitrile at the appropriat e time points, in a 1:3 ratio. The termination plates are centrifuged at 3,000 rpm for 20 min at 4 °C to precipitate the protein.
(§3) From a plot of ln peak area ratio (compound peak area/internal standard peak area) against time, the gradient of the line is determined. Subsequently, half -life and intrinsic clearance are calculated using the equations below:
(§4) Elimination rate constant (k) = (- gradient)
(§5) Intrinsic clearance (CL )(µL/min/mg protein) = V x 0.693 […]
(§6) where V = Incubation volume (µL)/Microsomal protein (mg)
(§7) Relevant control compounds are assessed, ensuring intrinsic clearance values fall within the specified limits (if available). […]

physchem = format: physicochemical; settings: for chromatographic logD: pH 7.4, Log D pH 7.4
Procedure: 2.4. Assay descriptions for the profiling of all four stereoisomers of (+)-floyocidin B and (−)-avicennone C,1 the avicennone C-floyocidin B hybrids 35, ent-35, 36 and ent-36 as well as the natural product (+)-floyocidin A.
Determination of logD 7.4
LogD values at pH 7.4 were determined by a standardized HPLC method derived from by Genieser et al.8 The calculation of the logD value for measured compounds is performed by comparison of the retention times with standard compounds of known distribution coefficients between 1 -octanol and water at pH 7.4. […]
8 Krass, J. D., Jastorff, B., and Genieser, H.-G. Anal. Chem. 1997, 69, 2575–2581. […]

HepG2 cells = test: Cytotoxicity on HepG2 cells (CellTiterGlo); format: cell-based; settings: 40 h
Procedure: (§8) Cytotoxicity on THP1 and HepG2 cells
(§9) After 4 hours of HepG2 cell line (provided by ATCC) plating at 2.500 cells /well in 384-w plates, compounds were added to the cells. After an incubation at 37 °C for 40 h, the CellTiterGlo assay (provided by Promega) was performed.
(§10) Luminescence measurement is related to the cell viability. Compound activity is determined by using the control wells with no treatment as control (100% of growth). The assay was performed identically with THP1 cells. All incubations were […]

M. tuberculosis H37Rv = test: Growth inhibition, M. tuberculosis H37Rv (Middlebrook 7H9, CellTiter-Blue); format: cell-based; settings: M. tuberculosis H37Rv (Mtb), 6 days
THP1 cells = test: Cytotoxicity on THP1 cells (CellTiterGlo); format: cell-based; settings: for Cytotoxicity TC50 THP1: THP1 cells, 40 h
Procedure: as §8, §9, §10

Caco-2 cells = test: Cellular permeability assay utilizing Caco2 cell line; settings: 10 µM, 120 min; for Caco‐2 permeability Papp +Elacridar / Caco‐2 permeability recovery +Elacridar: A2B in the presence of elacridar
[2] = Microsomal stability, mouse; format: in vitro ADME; settings: 1 µM compound; for Microsomal stability CLint, Mouse / Microsomal stability t1/2, Mouse: mouse liver microsomes 0.5 mg/mL; for microsomal CLint at 1 µM / half-life at 1 µM: mouse, pooled liver microsomes, pH 7.4, mouse liver microsomes 0.5 mg/mL; for microsomal CLint at 1 µM: read-out: Microsomal stability CLint, Mouse; for half-life at 1 µM: read-out: Microsomal stability t1/2, Mouse
Procedure: as §1, §2, §3, §4, §5, §6, §7

C. albicans FH2173 = test: Micro-broth dilution growth inhibition, C. albicans (ATP quantification); format: cell-based; settings: Candida albicans, FH2173, 48 h, read-out: MIC
[3] = system: M. catarrhalis ATCC25238I; test: Micro-broth dilution growth inhibition, M. catarrhalis; format: cell-based
P. aeruginosa ATCC27853 = test: Micro-broth dilution growth inhibition, P. aeruginosa; format: cell-based; settings: Pseudomonas aeruginosa, 18 h
E. coli ATCC25922 MHC = test: Micro-broth dilution growth inhibition, E. coli in CAMH with 44 mM sodium bicarbonate (MHC); format: cell-based; settings: Escherichia coli, ATCC25922, 18 h, E. coli ATCC25922 MHC (CAMH + 44 mM sodium bicarbonate), read-out: MIC
E. coli ATCC25922 = test: Micro-broth dilution growth inhibition, E. coli (CAMH); format: cell-based; settings: Escherichia coli, 18 h
S. aureus ATCC25923 = test: Micro-broth dilution growth inhibition, S. aureus; format: cell-based; settings: Staphylococcus aureus, 18 h
[4] = Cellular permeability assay utilizing Caco2 cell line; settings: human; for Papp at 120 min, 10 µM: Caco-2, Caco‐2 permeability Papp +Elacridar, A2B in the presence of elacridar; for Papp A→B at 120 min, 10 µM: Caco-2, Caco‐2 permeability Papp A2B, A2B
[5] = Mycobacterium tuberculosis, 144 h, read-out: MIC
[6] = Moraxella catarrhalis, ATCC25238I, read-out: MIC

Row | Structure (SMILES) | Cytotoxicity TC50 HepG2 (HepG2 cells) [µM] | Cytotoxicity TC50 THP1 (THP1 cells) [µM] | Caco‐2 permeability recovery +Elacridar (Caco-2 cells) | Caco‐2 permeability Papp A2B (Caco-2 cells) | Caco‐2 permeability recovery A2B (Caco-2 cells) [%] | Microsomal stability CLint, Mouse [2] [μL/min/mg protein] | Microsomal stability t1/2, Mouse [2] [min] | microsomal CLint at 1 µM [1] [µL/min/mg] | half-life at 1 µM [1] [min] | chromatographic logD (physchem) | MIC (C. albicans FH2173) [µg/mL] | MIC (M. tuberculosis H37Rv; [5]) [µg/mL] | MIC [3, 6] [µg/mL] | MIC (P. aeruginosa ATCC27853) [µg/mL] | MIC (E. coli ATCC25922 MHC) [µg/mL] | MIC (E. coli ATCC25922) [µg/mL] | MIC (S. aureus ATCC25923) [µg/mL] | microsomal CLint at 1 µM [2] [µL/min/mg] | half-life at 1 µM [2] [min] | Papp at 120 min, 10 µM [4] [×10⁻⁶ cm/s] | also measured
1 | CCCC=Cc1ccc2c(c1)C(=O)C1(CC=C(C)C)OC1C2O (stereo not drawn) [ent‐36] | 11.3 | 18.2 | 12.0% | 8.55 10^−7 cm s^−1 | 14.3 | 721 | 1.92 |  |  |  |  |  |  |  |  |  |  |  |  |  | Microsomal stability CLint, Human [1]: 29.9 μL/min/mg protein; Microsomal stability t1/2, Human [1]: 46.3 min; Log D pH 7.4 (physchem): 4.74; MIC (M. tuberculosis H37Rv): 9.4 µg/mL (≈ 30.1 µM); Caco‐2 permeability Papp +Elacridar (Caco-2 cells): 12.4 10^−7 cm s^−1; Caco‐2 permeability recovery +Elacridar (Caco-2 cells; listed as ent-36): 12.0%; Caco‐2 permeability recovery A2B (Caco-2 cells; listed as ent-36): 14.3%
2 | CCC/C=C/c1ccc2c(c1)C(=O)[C@]1(CC=C(C)C)O[C@@H]1[C@H]2O [compound 36] | 16.1 | 15.1 |  |  |  |  |  | 39.7 | 34.9 | 4.73 | > 128 | 9.4 (≈ 30.1 µM) | 8 (≈ 25.6 µM) | > 128 | > 128 | > 128 | > 128 | 259 | 5.36 |  | Cytotoxicity relative to 4 (THP1 cells; TC50 in THP‐1 and HepG2 compared with 4): three times less cytotoxic than 4
3 | CCCC=Cc1cc2c(cn1)C(O)C1OC1(CC=C(C)C)C2=O (stereo not drawn) [ent‐4] | 5.97 | 8.78 | 28.7% |  | 23.4 | 271 | 5.12 | 26.9 | 51.6 | 3.97 | > 128 |  | 16 (≈ 51.1 µM) | > 128 | > 128 | > 128 | > 128 |  |  | 4.67 | Caco‐2 permeability recovery +Elacridar (Caco-2 cells; listed as ent-4): 28.7%; Caco‐2 permeability recovery A2B (Caco-2 cells; listed as ent-4): 23.4%; Papp A→B at 120 min, 10 µM [4]: 7.35 ×10⁻⁶ cm/s
4 | CCCC=Cc1ccc2c(c1)C(=O)C1(CC=C(C)C)OC1C2O (stereo not drawn) [ent‐35] | 14.7 | 12.9 | [b] (46.1) % | 162 10^−7 cm s^−1 | 37.2 | 561 | 2.47 |  |  |  |  |  |  |  |  |  |  |  |  |  | Microsomal stability CLint, Human [1]: 40.5 μL/min/mg protein; Microsomal stability t1/2, Human [1]: 34.3 min; Log D pH 7.4 (physchem): 4.72; MIC (M. tuberculosis H37Rv): 9.4 µg/mL (≈ 30.1 µM); Caco‐2 permeability recovery +Elacridar (Caco-2 cells; listed as ent-35): 46.1%; Caco‐2 permeability recovery A2B (Caco-2 cells; listed as ent-35): 37.2%; MIC [3]: 32 µg/mL (≈ 102 µM)
5 | CCCC=Cc1ccc2c(c1)C(=O)C1(CC=C(C)C)OC1C2O (stereo not drawn) [compound 35] | 9.39 | 12.9 | 29.6% | 135 10^−7 cm s^−1 | 76.0 |  |  | 45.5 | 30.5 | 4.7 | > 128 | 9.4 (≈ 30.1 µM) | 64 (≈ 205 µM) | > 128 | > 128 | > 128 | > 128 | 1040 | 1.33 |  | Caco‐2 permeability Papp +Elacridar (Caco-2 cells): 181 10^−7 cm s^−1
6 | CCC/C=C/c1cc2c(cn1)[C@@H](O)[C@H]1O[C@@]1(CC=C(C)C)C2=O [compound 4, (1aR,2R,7aR)‐2‐Hydroxy‐7 a‐(3‐methylbut‐2‐en‐1‐yl)‐5‐((E)‐pent‐1‐en‐1‐yl)‐1 a,7 a‐dihydrooxireno[2,3‐g]isoquinolin‐7(2H)‐one] | 4.5 | 5.84 | 14.2% |  | 10.1 |  |  | 72.7 | 19.1 | 4.01 | > 128 | 9.4 (≈ 30 µM) | 16 (≈ 51.1 µM) | > 128 | > 128 | > 128 | > 128 | 349 | 3.97 | 5.62 | Papp A→B at 120 min, 10 µM [4]: 4.11 ×10⁻⁶ cm/s
7 | CCC/C=C/c1cc2c(cn1)[C@H](O)[C@H]1O[C@@]1(CC=C(C)C)C2=O [compound 27, (1aR,2S,7aR)‐2‐Hydroxy‐7 a‐(3‐methylbut‐2‐en‐1‐yl)‐5‐((E)‐pent‐1‐en‐1‐yl)‐1 a,7 a‐dihydrooxireno[2,3‐g]isoquinolin‐7(2H)‐one] | 10.7 | 10.6 | 38.5% |  | 42.1 |  |  | 95.8 | 14.5 | 4.14 | > 128 |  |  | > 128 | > 128 | > 128 | > 128 | 1500 | 0.924 | 8.77 | Papp A→B at 120 min, 10 µM [4]: 11.7 ×10⁻⁶ cm/s
